Assay results from patent publication US20250281478A1, “METHODS FOR PREVENTING OR TREATING KIDNEY DISEASES” (JEAMOON BEIJING CO., LTD., priority 2022, published 2025).

Experiments:
[1] = tested on: mice with sustained adenine-induced renal failure; test: Glomerular filtration rate in mice with sustained adenine-induced renal failure (TGFR system); assay type: in vivo, C57BL/6N mice; settings: 3 weeks continuous 0.25% adenine diet, FIG. 4
Protocol: (§1) • a) Control group: Fed with adenine-free feed; other procedures were the same as those in the model group. • b) Model group: Fed with feed containing 0.25% adenine for modelling. • c) LY-10 mg/kg group: Model+LY2922470 (10 mg/kg, p.o., QD). • d) LY-30 mg/kg group: Model+LY2922470 (30 mg/kg, p.o., QD). • e) LY-60 mg/kg group: Model+LY2922470 (60 mg/kg, p.o., QD). • f) TAK875 group: Model+TAK875 (30 mg/kg, p.o., QD).
(§2) Except for the control group, all other mice were fed with a diet containing 0.25% adenine for modelling. The control group was fed with a normal diet. All mice were allowed free access to food. One week after modeling, each group of mice was administered the respective treatment via oral gavage once daily in the afternoon for two consecutive weeks. The control group and the model group received vehicle under a same condition. The adenine-containing diet was continuously administered for modeling throughout the treatment period until the end of the experiment. The physical condition of the mice was monitored, and body weight was measured and recorded weekly. Blood samples were collected from the orbital venous plexus at 1 week (post-modeling) and 3 weeks (after 2 weeks of treatment). Serum was separated for the measurement of serum creatinine (CRE) and blood urea nitrogen (BUN). At the end of the two-week treatment, renal function of each group was assessed using a TGFR renal function monitoring and smart analysis system. After testing, tissues were collected from the mice to confirm the efficacy of the treatment.
(§3) Statistical analyses were performed using GraphPad Prism 8.0 software. Continuous data of each group were expressed as mean+SD. One-way ANOVA was used for multi-group comparisons, and Student's t-test was used for comparisons between two groups. A p-value<0.05 was considered statistically significant. For categorical data, chi-square tests were used to compare between groups, with p<0.05 indicating a statistically significant difference.
One week later, LY2922470 or TAK875 was administrated for treatment. […]

[2] = tested on: mice with adenine-induced renal failure; test: Blood urea nitrogen (BUN) in adenine-induced renal failure mice; assay type: in vivo, C57BL/6N mice; settings: for BUN after modeling for 3 weeks (after drug administration for 2 weeks) / BUN after modeling for 1 week (before drug administration): mean ± SD
Protocol: as §1, §2, §3
Mice were fed a 0.25% adenine-containing diet. After one week, the mice were treated with LY2922470 or TAK875. During the treatment period, the adenine-containing diet was continued for modeling. After three weeks of adenine feeding (i.e., two weeks of drug administration), blood samples were collected from the mice, and serum was isolated for CREA and BUN measurements.

[3] = tested on: TGF-β1-induced HK-2 cells; test: RT-PCR of fibrosis markers in TGF-β1-induced HK-2 cells; assay type: cell-based, human; settings: 10 ng/ml TGF-β1 + LY2922470 10, 50, 500 nM, 48 hours, FIG. 7
Protocol: • Group A: Control • Group B: TGF-β1 (10 ng/ml) • Group C: TGF-β1 (10 ng/ml)+LY (10 nM) • Group D: TGF-β1 (10 ng/ml)+LY (50 nM) • Group E: TGF-1 (10 ng/ml)+LY (500 nM)
(§4) HK-2 cells were cultured in MEM supplemented with 10% FBS and 1% penicillin-streptomycin solution. The HK-2 cells were taken from liquid nitrogen and quickly thawed in a 37° C. water bath, gently agitated to thaw the cryopreservation medium. After thawing, the cell suspension was transferred to a centrifuge tube containing 3 mL of culture medium and centrifuged at 1000 rpm for 5 min at room temperature to collect the cells. The supernatant was discarded. The cell pellet was resuspended in complete medium (10% FBS) and seeded into culture dishes. The cells were gently pipetted to ensure uniform distribution and incubated at 37° C. with 5% CO2 and saturated humidity.
HK-2 cells in a logarithmic growth phase and with good viability were seeded into 24-well plates at a density of 1×10^5 cells/well. Once the cells reached 40-50% confluence, treatments were applied according to the grouping described above: Group A: HK-2 cells were cultured normally; Group B was treated with 10 ng/ml TGF-β1; Group C was treated with 10 ng/ml TGF-β1 and 10 nM LY2922470; Group D was treated with 10 ng/ml TGF-β1 and 50 nM LY2922470; and Group E was treated with 10 ng/ML TGF-β1 and 500 nM LY2922470. […]

[4] = tested on: high glucose-induced HK-2 cells; test: RT-PCR of fibrosis markers in high glucose-induced HK-2 cells; assay type: cell-based, human; settings: 25 mM D-glucose + LY2922470 10, 50, 500 nM, 48 hours, FIG. 8
Protocol: • Group A: Control • Group B: HG (25 mM) • Group C: HG (25 mM)+LY (10 nM) • Group D: HG (25 mM)+LY (50 nM) • Group E: HG (25 mM)+LY (500 nM)
as §4
Once cells reached 40%-50% confluency, they were treated according to the grouping described above: Group A received normal HK-2 culture; Group B was treated with 25 mM D-glucose (high glucose); Group C was treated with 25 mM D-glucose and 10 nM LY2922470; Group D was treated with 25 mM D-glucose and 50 nM LY2922470; and Group E was treated with 25 mM D-glucose and 500 nM LY2922470. After 48 hours of culture, samples were collected from each group for RT-PCR analysis.

[5] = LY2922470 30 mg/kg p.o. QD for 2 weeks

## CC#C[C@@H](CC(=O)O)c1ccc(OCc2ccc(CN3CCCc4cccc(OC)c43)s2)cc1 [LY2922470]
[1]; [5]
  Renal function (GFR) improvement among the doses: most significant improvement
[1]; LY2922470 at different doses (10, 30, 60 mg/kg p.o. QD) for 2 weeks
  Renal function (GFR) compared with the model group: improved
[2]; [5]
  BUN level compared with the model group: statistically significant reduction
[2]; LY2922470 30 mg/kg p.o. QD
  BUN after modeling for 3 weeks (after drug administration for 2 weeks): 15.15 ± 4.53 mmol/L
[2]; LY2922470 60 mg/kg p.o. QD
  BUN after modeling for 3 weeks (after drug administration for 2 weeks): 13.85 ± 1.33 mmol/L
[2]; LY2922470 at different doses p.o. QD for 2 weeks
  Serum BUN level compared with the model group: reduced
[2]; baseline of the LY2922470 10 mg/kg group
  BUN after modeling for 1 week (before drug administration): 10.34 ± 3.55 mmol/L
[2]; baseline of the LY2922470 30 mg/kg group
  BUN after modeling for 1 week (before drug administration): 10.25 ± 3.42 mmol/L
[2]; baseline of the LY2922470 60 mg/kg group
  BUN after modeling for 1 week (before drug administration): 10.40 ± 3.83 mmol/L
[3]
  Expression level of Fibronectin (RT-PCR) compared to the TGF-β1 group: dose-dependent decrease
  Expression level of α-SMA (RT-PCR) compared to the TGF-β1 group: dose-dependent decrease
[4]
  Expression level of Fibronectin (RT-PCR) compared to the high-glucose group: reduced
  Expression level of α-SMA (RT-PCR) compared to the high-glucose group: reduced
